Measured values as given in ChEMBL document CHEMBL1201862, “PubChem BioAssay data set” (2004).
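All cell lines were grown in 96-well plates and treated with compound for 48 hours. GI50: concentration for 50% inhibition of growth.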 Calls of active or inactive are those of the source. Cut-off read from the data, not from the text of the source: active = GI50 up to about 1.1 µM and inactive = higher.

Columns and labels:
Test in all cases: NCI anticancer screen, dose series, 48 h
[1] = tested on: 786-0
[2] = tested on: A549
[3] = tested on: NCI-H522
[4] = tested on: HCT-116
[5] = tested on: COLO 205
[6] = tested on: NCI-H226
[7] = tested on: SF-539
[8] = tested on: UACC-62
[9] = tested on: UO-31
[10] = tested on: MDA-MB-435
[11] = tested on: PC-3
[12] = tested on: NCI-H23
[13] = tested on: CCRF-CEM
[14] = tested on: SK-MEL-5
[15] = tested on: MDA-MB-231
[16] = tested on: DU-145
[17] = tested on: EKVX
[18] = tested on: M14
[19] = tested on: CAKI-1
[20] = tested on: MCF7
[21] = tested on: IGROV-1
[22] = tested on: SNB-75
[23] = tested on: MOLT-4
[24] = tested on: LOX IMVI
[25] = tested on: HL-60
[26] = tested on: HOP-62
[27] = tested on: OVCAR-5
[28] = tested on: OVCAR-4
[29] = tested on: SN12C
[30] = tested on: HT-29
[31] = tested on: MDA-N
[32] = tested on: SK-OV-3
[33] = tested on: OVCAR-3
[34] = tested on: SK-MEL-2
[35] = tested on: OVCAR-8
[36] = tested on: KM12
[37] = tested on: K562
[38] = tested on: BT-549
[39] = tested on: UACC-257
[40] = tested on: TK-10
[41] = tested on: ACHN
[42] = tested on: U-251
[43] = tested on: SW-620
[44] = tested on: SF-295
[45] = tested on: SR
[46] = tested on: RXF 393
[47] = tested on: SK-MEL-28
[48] = tested on: HOP-92
[49] = tested on: RPMI-8226
[50] = tested on: SNB-19
[51] = tested on: A498
[52] = tested on: NCI-H460
[53] = tested on: HCC 2998
[54] = tested on: NCI/ADR-RES
[55] = tested on: HCT-15

For `Cn1c(=N)n[n+]([O-])c2ccccc21`, the GI50 [1] was 4.24 µM (inactive), the GI50 [2] was 7.38 µM (inactive) and the GI50 [3] was 3.72 µM (inactive). The GI50 [4] was 3.78 µM (inactive), the GI50 [5] was 2.34 µM (inactive) and the GI50 [6] was 6.98 µM (inactive). For the same molecule, the GI50 [7] was 1.99 µM (inactive), the GI50 [8] was 1.09 µM (active) and the GI50 [9] was 3.22 µM (inactive). The GI50 [10] was 0.541 µM (active), the GI50 [11] was 5.6 µM (inactive) and the GI50 [12] was 2.07 µM (inactive). The GI50 [13] was 3.01 µM (inactive), the GI50 [14] was 1.83 µM (inactive) and the GI50 [15] was 9.42 µM (inactive). For the same molecule, the GI50 [16] was 2.26 µM (inactive), the GI50 [17] was 7.69 µM (inactive) and the GI50 [18] was 2.02 µM (inactive). The GI50 [19] was 2.49 µM (inactive), the GI50 [20] was 2.18 µM (inactive) and the GI50 [21] was 3.59 µM (inactive). For the same molecule, the GI50 [22] was 2.01 µM (inactive), the GI50 [23] was 2.03 µM (inactive) and the GI50 [24] was 1.62 µM (inactive). The GI50 [25] was 2.79 µM (inactive), the GI50 [26] was 2.45 µM (inactive) and the GI50 [27] was 2.25 µM (inactive). For the same molecule, the GI50 [28] was 2.48 µM (inactive), the GI50 [29] was 1.84 µM (inactive) and the GI50 [30] was 1.68 µM (inactive). For the same molecule, the GI50 [31] was 1.9 µM (inactive), the GI50 [32] was 25.3 µM (inactive) and the GI50 [33] was 0.895 µM (active). The GI50 [34] was 2.22 µM (inactive), the GI50 [35] was 13 µM (inactive) and the GI50 [36] was 19.9 µM (inactive). For the same molecule, the GI50 [37] was 1.59 µM (inactive), the GI50 [38] was 1.87 µM (inactive) and the GI50 [39] was 2.71 µM (inactive). For the same molecule, the GI50 [40] was 25.6 µM (inactive), the GI50 [41] was 4.9 µM (inactive) and the GI50 [42] was 12.3 µM (inactive). The GI50 [43] was 2.12 µM (inactive) and the GI50 [44] was 2.98 µM (inactive).

In the case of `COc1nc2c(c(=O)n1C)N=C(c1ccc(Cl)cc1)CC(c1ccccc1)N2` (configuration not stated), the GI50 [1] is reported as 33.8 µM (inactive), the GI50 [2] is reported as 36.5 µM (inactive) and the GI50 [45] is reported as 23.7 µM (inactive). The GI50 [3] was 17.9 µM (inactive), the GI50 [4] was 22.7 µM (inactive) and the GI50 [5] was 36 µM (inactive). For the same molecule, the GI50 [6] was 16.1 µM (inactive), the GI50 [7] was 17.7 µM (inactive) and the GI50 [8] was 17.6 µM (inactive). For the same molecule, the GI50 [46] was 22.5 µM (inactive), the GI50 [9] was 33.5 µM (inactive) and the GI50 [10] was 39 µM (inactive). The GI50 [47] was 54.1 µM (inactive), the GI50 [11] was 37.7 µM (inactive) and the GI50 [12] was 25.2 µM (inactive). The GI50 [13] was 27.7 µM (inactive), the GI50 [48] was 42.8 µM (inactive) and the GI50 [14] was 19.5 µM (inactive). For the same molecule, the GI50 [15] was 23.3 µM (inactive), the GI50 [16] was 33.3 µM (inactive) and the GI50 [49] was 24 µM (inactive). The GI50 [17] was 21.5 µM (inactive), the GI50 [18] was 32.9 µM (inactive) and the GI50 [19] was 26.9 µM (inactive). The GI50 [20] was 14.8 µM (inactive), the GI50 [21] was 17.2 µM (inactive) and the GI50 [50] was 38.8 µM (inactive). The GI50 [51] was 41.6 µM (inactive), the GI50 [22] was 14.3 µM (inactive) and the GI50 [23] was 17.6 µM (inactive). For the same molecule, the GI50 [24] was 21.2 µM (inactive), the GI50 [26] was 32.1 µM (inactive) and the GI50 [27] was 25.6 µM (inactive). The GI50 [28] was 13.3 µM (inactive), the GI50 [29] was 21.7 µM (inactive) and the GI50 [30] was 18.7 µM (inactive). The GI50 [31] was 18.8 µM (inactive), the GI50 [52] was 14.4 µM (inactive) and the GI50 [32] was 41.5 µM (inactive). For the same molecule, the GI50 [33] was 35.1 µM (inactive), the GI50 [53] was 17.7 µM (inactive) and the GI50 [34] was 18.7 µM (inactive). For the same molecule, the GI50 [35] was 26.8 µM (inactive), the GI50 [36] was 16.7 µM (inactive) and the GI50 [37] was 6.78 µM (inactive). For the same molecule, the GI50 [38] was 27.4 µM (inactive), the GI50 [39] was 26.5 µM (inactive) and the GI50 [41] was 20.9 µM (inactive). For the same molecule, the GI50 [54] was 22.2 µM (inactive), the GI50 [42] was 35.1 µM (inactive) and the GI50 [43] was 46.3 µM (inactive). The GI50 [55] was 15 µM and the GI50 [44] was 18.8 µM (inactive).
